These results are taken from patent US9345781B2, “Targeted dendrimer-drug conjugates” (priority 2009, dated 2016).

For data set [1], the system named is tumors of nude tumor bearing mice. Put plainly: Tumor growth in nude tumor bearing mice after intravenous dosing. Format: in vivo. The conditions noted are these: one dose/week for 3 weeks. On the procedure: (§1) Nude tumor bearing mice were administered by intravenous injection a single dose of 6, 8, 10, or 12 mg/kg of free DOX (one dose/week for 3 weeks). The mice were sacrificed two weeks after the last administration and the tumors were harvested for analysis. Tumor size was measured and compared to the size of tumors harvested from mice administered a saline control.
The above experiment was repeated with an 8 mg/kg dose of free DOX and two additional test groups of mice: one group of mice were administered a dendrimer conjugate comprising a G5 dendrimer conjugated to DOX (G5-OXY-DOX) comprising an azo linkage comprising the structure of
(§2) Also, in this experiment, instead of being sacrificed two weeks after the last administration, the tumor volumes of the mice were measured one week after the last administration and then measured again four weeks later.

Data set [2] can be described thus: Toxicity and body weight of treated mice. The data set is classed as in vivo. The conditions noted are these: one dose/week for 3 weeks. On the procedure: as §1, §2
Another data set concerns HepG2 cells. Put plainly: Clonogenic survival of HepG2 cells. The data set is classed as cell-based, human. The conditions noted are these: 72 hour incubation, equivalent DOX concentration.
The test system of a further data set is Hep3B cells. Put plainly: Clonogenic survival of Hep3B cells. The data set is classed as cell-based, human.
The subject of another data set is rat cardiomyocytes. The data set is described as follows: LDH leakage cell viability assay in rat cardiomyocytes. Format: cell-based. The following applies: 100 μM eq. DOX, 8 hour incubation, versus blank medium. The protocol:
Toxicity of G5-L4-DOX conjugates and free DOX in rat cardiomyocytes was evaluated using the lactate dehydrogenase (LDH) leakage cell viability assay. Briefly, each well was counted for total number of cardiomyocytes before an 8 hour treatment with free DOX or G5-L4-DOX (100 μM eq. DOX) conjugates dissolved in 0.5 mL HBSS. The amount of LDH released to the medium was assayed by mixing […] of the treatment solution in a 96-well plate with the enzyme substrate (1:1) included in the assay kit following the manufacturer's guidelines. […] Amount of LDH leakage for treatment solution and controls were normalized to the number of seeded cells, and all values compared to the positive control (set as 100% LDH leakage reference) to obtain the percentage of LDH leakage as a function of treatment.
In general terms: Release of lactate dehydrogenase indicates damage to the cell membrane.

Each structure is given as a SMILES string.

Description for Hep3B cells: (§3) We compared the anticancer activity of G5-L(x)-DOX conjugates to free DOX as a function of concentration by measuring their effect on clonogenic survival of HepG2 and Hep3B hepatic cancer cells. Briefly, HepG2 and Hep3B cells were seeded at a density of 2.5×10^5 cells/T-25 flask and allowed to adhere overnight before incubating with different concentrations (1 nM-100 μM equivalent concentration of DOX) of free DOX or G5-L(x)-DOX conjugates dissolved in OPTI-MEM solution. […] After 72 hours HepG2 and Hep3B cells were washed with cold PBS, trypsinized using a 0.25% trypsin-EDTA solution and centrifuged at 1,000 rpm for 5 minutes. Cell pellets were suspended in fresh culture medium, counted, and plated in 6-well plates at a seeding density of 500-10,000 cells/well and allowed to grow undisturbed for 14 days under normal culture conditions. The formed colonies were gently washed with cold PBS, treated with 1 mL methanol/glacial acetic acid (75/25) and 0.04% w/v trypan blue for 5 minutes and counted. Plating efficiency (PE) for each cell line was calculated by dividing the number of colonies by the cell seeding density for cells incubated with fresh culture medium (negative control). […] All samples were prepared in triplicate for each seeding density and treatment condition, and results expressed as the average % SF±SEM. […]
Description for HepG2 cells: as §3

The IC50 is the midpoint of a concentration-inhibition curve. As for `COc1cccc2c1C(=O)c1c(O)c3c(c(O)c1C2=O)C[C@@](O)(C(=O)CO)C[C@@H]3O[C@H]1C[C@H](N)[C@H](O)[C@H](C)O1.Cl` (relative stereo) [Free DOX, 5,12-Naphthacenedione, 10-[(3-amino-2,3,6-trideoxy-α-L-lyxo-hexopyranosyl)oxy]-7,8,9,10-tetrahydro-6,8,11-trihydroxy-8-(hydroxylacetyl)-1-methoxy-, hydrochloride (8S-cis)], in data set [1] (6 mg/kg i.v.), the “reduction in tumor size versus saline control” value was “did not cause any substantial reduction in tumor size”. The “tumor growth versus control mice” value in data set [1] (8 and 10 mg/kg i.v.) is “inhibited tumor growth”. The toxicity to mice entry is on record as “slight increase in toxicity” in data set [2] (10 mg/kg i.v.) and “too toxic to mice” in data set [2] (12 mg/kg i.v.). For the same compound, the IC50 with HepG2 cells is 10 nM; with Hep3B cells (clonogenic survival, 72 hour incubation, equivalent DOX concentration), 2 nM. In addition, in the data set on Hep3B cells (72 hours), the “fold reduction in IC50 in Hep3B compared to HepG2 cells” value turned out to be 5 fold. The “LDH leakage / cardiac toxicity” value in the data set with rat cardiomyocytes is given as “nearly double the % of LDH leakage”; in the data set with rat cardiomyocytes (listed as free DOX), “toxic”.
